# Results from patent publication US11505583B2, “Proteins for the treatment of epithelial barrier function disorders” (Second Genome, Inc., priority 2018, dated 2022).
# Tests used:
# [1] = test system: HCT8 enterocyte and HT29-MTX goblet cell lines; assay: Oris Cell Migration assay (epithelial cell wound healing); assay type: cell-based, human; details: 48 hours; SG-11 (SEQ ID NO:5 or SEQ ID NO:9) 1 μg/ml, EGF 30 ng/ml, staurosporine 100 nM; FIG. 2
# Description: The 96 well Oris Cell Migration assay containing plugs preventing cell attachment in the center of each well was used according to the manufacturer's instructions (Platypus Technologies, Madison, Wis.). The migration assay plates were warmed to room temperature prior to use and plugs were removed from 100% confluence wells prior to cell addition. The HCT8 enterocyte and HT29-MTX goblet cell lines were used at a 9:1 ratio with a total of 5×10^4 total cells added per well (4.5×10^4 HCT8 cells and 0.5×10^4 HT29-MTX cells). Cells were incubated at 37° C.+5% CO2 for 24 hours. Plugs were then removed from all control and sample wells. Control wells included cells treated with the diluent vehicle as the blank, 30 ng/ml epidermal growth factor (EGF) as the positive control, and 100 nM staurosporine as the negative control, all diluted in cRPMI. Sample wells contained SG-11 protein (SEQ ID NO:9) at a concentration of 1 μg/ml diluted in cRPMI. 100% and 0% wells were cultured in cRPMI. […] The green fluorescent viability dye […] was added to all wells at a concentration of 0.5 μg/ml in PBS containing 0.9 mM CaCl2 and 0.5 mM MgCl2, incubated for 30 min at 37° C.+5% CO2, the dye was removed and cells were washed in PBS containing 0.9 mM CaCl2 and 0.5 mM MgCl2 and fluorescence was measured. […] Samples were normalized between 100% and 0% samples and values expressed as a percent growth.
# [2] = test system: C57BL/6 mice given 2.5% DSS in drinking water; assay: Concurrent (prophylactic) DSS model of inflammatory bowel disease (Example 4, Example 13A); assay type: in vivo, mouse; details: 50 nmoles/kg i.p. b.i.d.
# [3] = test system: C57BL/6 mice given 2.5% DSS in drinking water; assay: Therapeutic DSS model of inflammatory bowel disease, treatment after 7 days DSS (Example 5, Example 13B); assay type: in vivo, mouse
# Experimental: In this example, experiments were performed to study the effects of SG-11 in the DSS mouse model when the SG-11 protein is administered to the mice after DSS treatment for 7 days. This differs from the treatment regimen of Example 4 above in which mice were administered SG-11 protein shortly before treatment with DSS.
# Eight-week-old male C57BL/6 mice were housed 5 animals per cage and given food and water ad libitum for seven days. Following a 7-day acclimation period, the mice were provided with drinking water containing 2.5% DSS for 7 days. Fresh 2.5% DSS water was prepared every 2 days during the 7 day DSS administration. For this therapeutic DSS study, SG-11 used to treat the animals was fused at its N-terminus to a FLAG Tag (DYKDDDDK; SEQ ID NO:32).
# On day 7 normal drinking water was restored and i.p. treatments of 50 nmole/kg of SG-11 (1.3 mg/kg) or Gly2-GLP2 (0.2 mg/kg) were initiated. Treatments were administered twice a day (b.i.d.), with a morning and evening dose (every 8 and 16 hours) for six days.
# Body weight was measured daily during the morning treatment. The colon tissue was then harvested and length was measured in centimeters and the tissue was weighed. Fecal material was flushed from the colon and residual PBS removed by gently running the colon tissue through a pair of forceps. The colon tissue was then weighed and colon weight to length ratio in mg/mm was determined. Following weight measurements proximal and distal colon tissue was banked for RNA and protein analysis and the remaining tissues was fixed in 10% neutral buffered formalin for histopathology. Statistical analysis was performed by a one-way ANOVA compared to DSS+vehicle for serum 4KDa-FITC translocation, serum LBP concentrations, colon length, and colon weight to length ratio, while a two-way ANOVA was performed for analysis of body weight. In all analysis, a Fisher's LSD test for multiple comparisons was used. Graphs represent data pooled from two experiments, and are plotted as mean±SEM.
# Histopathology analysis was performed on proximal and distal colon tissues from the therapeutic DSS model described above. Proximal (FIG. 13A) and distal (FIG. 13B) colon scores (range 0-4) are presented and as well as the total score for the colon which represents the sum of proximal and distal colon scores (Range 0-8) (FIG. 13C). LMA=Loss of mucosal architecture, Edema=Edema, INF=Inflammation, TMI=Transmural inflammation, MH=Mucosal hyperplasia, DYS=Dysplasia. Graphs represent data pooled from two independent experiments, and are plotted as mean±SEM. Statistical analysis was performed by a one-way ANOVA compared to DSS+vehicle followed by a Fisher's LSD test for multiple comparisons.
# In the second experiment (Example 13B), mice were provided with drinking water containing 2.5% DSS for 7 days. On day 7 normal drinking water was restored and i.p. treatments of 50 nmole/kg of SG-11 (SEQ ID NO:7) (1.3 mg/kg), SG-11V5 (SEQ ID NO:19) (1.3 mg/kg), or Gly2-GLP2 (0.2 mg/kg) were initiated. […]
# At the end of each DSS model study, mice were fasted for 4 hours and then orally gavaged with 600 mg/kg 4KDa dextran labeled with fluorescein isothiocyanate (FITC) [4KDa-FITC]. One hour after the 4KDa-FITC gavage mice were euthanized, blood was collected and FITC signal was measured in serum. […]
# Upon completion of the DSS models above, LBP levels were measured as an inflammation centric readout of barrier function following the protocol detailed in Example 5. […]
# [4] = mouse, in vivo, ip
# [5] = Example 5, colon tissue, vs DSS+vehicle, FIG. 13
molecule,measurement,setting,value
CN[C@@H]1C[C@H]2O[C@@](C)([C@@H]1OC)n1c3ccccc3c3c4c(c5c6ccccc6n2c5c31)C(=O)NC4 [staurosporine],"Percent growth (epithelial cell wound healing, proliferation)",[1],suppressing cell proliferation
"Gly2-GLP2: stable analog of glucagon-like peptide 2 (GLP2), positive control (HGDGSFSDEMNTILDNLAARDFINWLIQTKITD; Glucagon-like peptide 2; UniProt P01275 146-178, looked up, variant A2G) [reference compound]",Colon length,[2]; FIG. 8A,significant improvement in colon length
same,Colon weight to length ratio,[2]; FIG. 8B,significant improvement in colon weight to length ratios
same,LBP in serum,"[3]; Example 5, 50 nmole/kg i.p. b.i.d. for six days after 7 days DSS, FIG. 10",no reduction in LBP
same,Histopathology: inflammation and transmural inflammation scores,[3]; [5],no change
same,Histopathology: loss of mucosal architecture score,[3]; [5],"modest, but significant, reduction"
same,Colon weight to length ratio,"[3]; Example 13B, 50 nmole/kg, vs DSS+vehicle, p<0.01, FIG. 23B",did not
same,4KDa-FITC intestinal permeability readout and serum LBP,"[3]; treatment after 7 days DSS, 50 nmole/kg i.p. b.i.d. for six days, FLAG-tagged SG-11",no significant effects
"epidermal growth factor [EGF, positive control in the wound healing assay]","Percent growth (epithelial cell wound healing, proliferation)",[1],increasing proliferation
fluorescently labeled bovine serum albumin: tracer protein used in preliminary tracking studies after i.p. injection,Time at which protein reached the colon after i.p. delivery,[4],6 h
